How the values were obtained:
Assay in all cases: LC-MS/MS cellular uptake versus vector control
Format in all cases: cell-based
[1] = biological target: T1, Opt1p/Hgt1p (ScOPT1) (Saccharomyces cerevisiae, UniProt P40897); conditions: 100 uM folinic acid, opt1-delta cells, pH 5.5, 30 °C; time course
T1 construct: gene OPT1; full-length plasma membrane transporter, TEF promoter plasmid, in S. cerevisiae opt1-delta cells
T1 sequence (P40897 1-799): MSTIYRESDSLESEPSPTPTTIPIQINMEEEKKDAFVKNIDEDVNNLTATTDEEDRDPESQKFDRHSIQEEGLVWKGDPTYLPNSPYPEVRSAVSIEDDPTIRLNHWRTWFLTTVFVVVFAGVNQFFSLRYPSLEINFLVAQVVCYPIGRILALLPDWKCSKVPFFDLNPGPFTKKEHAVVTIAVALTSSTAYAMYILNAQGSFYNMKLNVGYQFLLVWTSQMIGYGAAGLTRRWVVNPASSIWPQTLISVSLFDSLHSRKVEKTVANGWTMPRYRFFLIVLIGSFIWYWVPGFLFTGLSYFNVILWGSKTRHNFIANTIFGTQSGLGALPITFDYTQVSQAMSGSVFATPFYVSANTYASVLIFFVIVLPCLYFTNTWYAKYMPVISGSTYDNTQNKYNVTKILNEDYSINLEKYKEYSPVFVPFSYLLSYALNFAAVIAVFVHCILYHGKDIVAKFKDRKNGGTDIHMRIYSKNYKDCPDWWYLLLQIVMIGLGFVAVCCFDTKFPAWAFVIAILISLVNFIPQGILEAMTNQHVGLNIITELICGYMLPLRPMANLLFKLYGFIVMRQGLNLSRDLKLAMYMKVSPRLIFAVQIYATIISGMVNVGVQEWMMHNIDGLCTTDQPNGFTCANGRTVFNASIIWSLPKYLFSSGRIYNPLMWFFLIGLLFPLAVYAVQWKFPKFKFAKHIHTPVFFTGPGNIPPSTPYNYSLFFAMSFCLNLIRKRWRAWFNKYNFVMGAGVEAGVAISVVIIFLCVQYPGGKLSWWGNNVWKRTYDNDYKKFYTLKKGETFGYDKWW

[2] = biological target: T2, AfOPTH (Aspergillus fumigatus, UniProt Q4WAD5); conditions: 100 uM folinic acid, opt1-delta cells, pH 5.5, 30 °C, 5 min
T2 construct: gene AFUA_7G00910; plasmid-expressed in S. cerevisiae opt1-delta cells (MET25 promoter; TEF)
T2 sequence (Q4WAD5 1-757): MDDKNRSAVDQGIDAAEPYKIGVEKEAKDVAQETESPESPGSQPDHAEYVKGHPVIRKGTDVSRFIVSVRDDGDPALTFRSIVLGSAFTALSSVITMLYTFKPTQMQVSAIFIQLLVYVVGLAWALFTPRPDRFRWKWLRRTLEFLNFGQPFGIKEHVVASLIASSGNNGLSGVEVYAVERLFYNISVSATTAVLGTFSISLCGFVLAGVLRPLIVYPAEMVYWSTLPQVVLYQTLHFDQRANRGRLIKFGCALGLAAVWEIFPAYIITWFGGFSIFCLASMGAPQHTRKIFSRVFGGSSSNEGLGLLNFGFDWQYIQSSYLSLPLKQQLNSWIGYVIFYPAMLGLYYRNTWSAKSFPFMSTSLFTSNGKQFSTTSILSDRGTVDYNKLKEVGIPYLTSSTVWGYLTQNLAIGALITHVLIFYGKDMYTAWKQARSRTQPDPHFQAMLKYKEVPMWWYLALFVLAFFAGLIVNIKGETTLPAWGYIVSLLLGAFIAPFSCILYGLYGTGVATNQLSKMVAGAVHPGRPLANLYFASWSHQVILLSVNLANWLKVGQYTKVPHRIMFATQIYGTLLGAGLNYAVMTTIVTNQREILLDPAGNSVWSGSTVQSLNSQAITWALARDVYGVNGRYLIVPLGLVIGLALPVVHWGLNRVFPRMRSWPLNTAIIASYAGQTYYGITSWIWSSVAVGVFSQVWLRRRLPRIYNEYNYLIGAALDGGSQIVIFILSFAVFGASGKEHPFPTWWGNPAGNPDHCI

[3] = biological target: T3, AtOPT6 (Arabidopsis thaliana, UniProt Q9T095); conditions: 100 uM folinic acid, opt1-delta cells, pH 5.5, 30 °C, 5 min
T3 construct: gene OPT6; cDNA from Arabidopsis Biological Resource Center, TEF promoter plasmid, in S. cerevisiae opt1-delta cells
T3 sequence (Q9T095 1-736): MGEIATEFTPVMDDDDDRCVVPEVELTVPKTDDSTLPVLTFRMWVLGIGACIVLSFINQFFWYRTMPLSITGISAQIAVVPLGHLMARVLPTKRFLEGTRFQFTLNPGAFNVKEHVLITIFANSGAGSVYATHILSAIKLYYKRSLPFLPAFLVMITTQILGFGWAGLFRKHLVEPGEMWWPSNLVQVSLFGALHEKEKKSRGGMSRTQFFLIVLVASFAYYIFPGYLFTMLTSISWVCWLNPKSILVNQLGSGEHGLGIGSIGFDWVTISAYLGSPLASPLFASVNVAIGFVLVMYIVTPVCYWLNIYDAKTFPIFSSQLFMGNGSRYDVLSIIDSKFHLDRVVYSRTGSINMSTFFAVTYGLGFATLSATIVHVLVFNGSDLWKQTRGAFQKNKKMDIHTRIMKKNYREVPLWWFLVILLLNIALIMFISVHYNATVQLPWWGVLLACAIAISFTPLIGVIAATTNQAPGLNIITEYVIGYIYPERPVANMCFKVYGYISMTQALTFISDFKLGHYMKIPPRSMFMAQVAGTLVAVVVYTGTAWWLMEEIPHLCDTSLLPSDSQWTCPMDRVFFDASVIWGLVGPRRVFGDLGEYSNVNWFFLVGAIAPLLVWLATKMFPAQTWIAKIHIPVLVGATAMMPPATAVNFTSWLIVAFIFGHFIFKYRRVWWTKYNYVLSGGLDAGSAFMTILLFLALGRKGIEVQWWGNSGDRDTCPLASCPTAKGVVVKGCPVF

[4] = biological target: T4, AtOPT4 (Arabidopsis thaliana, UniProt Q9FME8); conditions: 100 uM folinic acid, opt1-delta cells, pH 5.5, 30 °C, 5 min
T4 construct: gene OPT4; cDNA from Arabidopsis Biological Resource Center, TEF promoter plasmid, in S. cerevisiae opt1-delta cells
T4 sequence (Q9FME8 2-729): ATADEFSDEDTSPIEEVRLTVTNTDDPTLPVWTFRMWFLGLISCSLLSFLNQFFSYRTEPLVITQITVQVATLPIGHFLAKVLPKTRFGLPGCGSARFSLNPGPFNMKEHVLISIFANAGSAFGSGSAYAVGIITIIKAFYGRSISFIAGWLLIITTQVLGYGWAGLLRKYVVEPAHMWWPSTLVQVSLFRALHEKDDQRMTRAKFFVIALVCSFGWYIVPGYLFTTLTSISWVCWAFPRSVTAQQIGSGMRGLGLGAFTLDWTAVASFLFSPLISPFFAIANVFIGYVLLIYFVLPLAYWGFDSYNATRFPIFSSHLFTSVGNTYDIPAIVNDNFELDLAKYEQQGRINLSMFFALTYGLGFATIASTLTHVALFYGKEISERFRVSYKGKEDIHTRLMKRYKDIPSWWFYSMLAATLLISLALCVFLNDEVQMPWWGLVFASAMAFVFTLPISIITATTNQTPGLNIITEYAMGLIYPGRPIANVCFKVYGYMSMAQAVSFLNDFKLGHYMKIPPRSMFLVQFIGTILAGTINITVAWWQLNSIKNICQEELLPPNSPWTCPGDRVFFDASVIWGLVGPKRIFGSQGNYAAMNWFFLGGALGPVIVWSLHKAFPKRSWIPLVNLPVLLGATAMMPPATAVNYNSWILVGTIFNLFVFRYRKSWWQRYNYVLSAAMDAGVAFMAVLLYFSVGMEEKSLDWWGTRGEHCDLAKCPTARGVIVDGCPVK

[5] = biological target: T5, AtOPT2 (Arabidopsis thaliana, UniProt O04514); conditions: 100 uM folinic acid, opt1-delta cells, pH 5.5, 30 °C, 5 min
T5 construct: gene OPT2; cDNA from Arabidopsis Biological Resource Center, TEF promoter plasmid, in S. cerevisiae opt1-delta cells
T5 sequence (O04514 1-734): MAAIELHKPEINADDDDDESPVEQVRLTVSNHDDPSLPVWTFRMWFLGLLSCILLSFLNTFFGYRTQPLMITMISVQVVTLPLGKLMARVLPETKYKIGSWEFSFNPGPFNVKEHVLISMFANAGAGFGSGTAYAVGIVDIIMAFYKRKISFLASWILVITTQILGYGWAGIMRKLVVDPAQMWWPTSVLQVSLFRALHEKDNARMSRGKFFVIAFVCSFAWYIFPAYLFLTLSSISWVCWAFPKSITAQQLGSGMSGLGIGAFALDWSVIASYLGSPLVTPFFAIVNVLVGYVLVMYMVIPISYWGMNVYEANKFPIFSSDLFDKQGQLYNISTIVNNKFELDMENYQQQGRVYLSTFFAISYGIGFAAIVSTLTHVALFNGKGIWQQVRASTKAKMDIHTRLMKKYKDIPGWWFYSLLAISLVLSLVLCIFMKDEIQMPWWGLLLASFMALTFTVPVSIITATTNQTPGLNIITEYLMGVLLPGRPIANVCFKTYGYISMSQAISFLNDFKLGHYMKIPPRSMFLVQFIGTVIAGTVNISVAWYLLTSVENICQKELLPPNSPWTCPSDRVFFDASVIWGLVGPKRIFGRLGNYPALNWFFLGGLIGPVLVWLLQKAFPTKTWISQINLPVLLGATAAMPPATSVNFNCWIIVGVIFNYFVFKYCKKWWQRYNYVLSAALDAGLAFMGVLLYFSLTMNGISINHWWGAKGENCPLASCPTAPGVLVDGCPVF

[6] = biological target: T6, CaOPT1 (Candida albicans, UniProt Q5YBA3); conditions: 100 uM folinic acid, opt1-delta cells, pH 5.5, 30 °C, 5 min
T6 construct: gene OPT1; TEF promoter plasmid, expressed in S. cerevisiae opt1-delta cells
T6 sequence (Q5YBA3 1-783): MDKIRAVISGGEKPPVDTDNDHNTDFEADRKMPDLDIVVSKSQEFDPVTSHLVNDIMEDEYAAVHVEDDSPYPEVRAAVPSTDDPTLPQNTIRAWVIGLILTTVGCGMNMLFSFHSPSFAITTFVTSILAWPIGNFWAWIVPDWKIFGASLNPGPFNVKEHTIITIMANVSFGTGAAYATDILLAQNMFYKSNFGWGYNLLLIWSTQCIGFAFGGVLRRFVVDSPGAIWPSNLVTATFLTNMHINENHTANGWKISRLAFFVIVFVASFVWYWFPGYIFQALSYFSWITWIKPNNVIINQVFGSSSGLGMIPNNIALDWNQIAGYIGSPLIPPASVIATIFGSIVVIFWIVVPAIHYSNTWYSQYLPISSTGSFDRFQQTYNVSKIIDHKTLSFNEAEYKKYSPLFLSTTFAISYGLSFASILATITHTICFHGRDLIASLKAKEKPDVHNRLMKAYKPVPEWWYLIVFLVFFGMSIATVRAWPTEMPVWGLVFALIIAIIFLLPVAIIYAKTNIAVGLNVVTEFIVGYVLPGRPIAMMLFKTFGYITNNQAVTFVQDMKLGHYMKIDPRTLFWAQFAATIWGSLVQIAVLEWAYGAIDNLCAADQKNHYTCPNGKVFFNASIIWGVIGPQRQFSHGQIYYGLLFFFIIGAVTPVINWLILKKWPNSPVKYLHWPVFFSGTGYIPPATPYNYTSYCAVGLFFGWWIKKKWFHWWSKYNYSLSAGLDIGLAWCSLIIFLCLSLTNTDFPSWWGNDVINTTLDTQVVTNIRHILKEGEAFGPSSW

Nc1nc2c(c(=O)[nH]1)N(C=O)[C@@H](CNc1ccc(C(=O)N[C@@H](CCC(=O)O)C(=O)O)cc1)CN2 [folinic acid]
LC-MS/MS cellular uptake versus vector control [1]: a rapid increase in intracellular folinic acid was observed in the cells bearing TEF-OPT1 plasmid
LC-MS/MS cellular uptake versus vector control [2]: carried out uptake experiments with AfOPTH to confirm its ability to transport folates
LC-MS/MS cellular uptake versus vector control [3]: AtOPT2 and AtOPT4 and even AtOPT6 contribute to folate transport
LC-MS/MS cellular uptake versus vector control [4]: AtOPT2 and AtOPT4 and even AtOPT6 contribute to folate transport
LC-MS/MS cellular uptake versus vector control [5]: AtOPT2 and AtOPT4 and even AtOPT6 contribute to folate transport
LC-MS/MS cellular uptake versus vector control [6]: confirmed the ability of C. albicans CaOPT1 to transport folate by uptake assays

Source: paper PMC12687453, “Plasma membrane folate transport in fungi and plants is mediated by members of the oligopeptide transporter (OPT) family” (Biochemical Journal, 2025)
